The target in assay [1] is T1, Casein Kinase II (CK2 holoenzyme) (Homo sapiens, UniProt P68400).
T1 construct: gene CSNK2A1; commercial recombinant holoenzyme, heterotetramer; with Casein kinase II subunit beta
The assay can be described thus: [γ-32P]ATP phosphorylation of immunoprecipitated myc-AP3B1, autoradiography. It counts as biochemical. To be noted: 15 µM TBCA preincubated 30 min on ice; 500 µM Mg-ATP; enzyme form (holoenzyme or GST-CK2α) not told for the TBCA lanes.

A further assay addresses T2, AP3B1 (myc-tagged) (Homo sapiens, UniProt O00203).
T2 construct: full-length, N-terminal myc tag, expressed in HEK293T cells, immunoprecipitated on protein G-sepharose beads
T2 sequence (O00203 1-1094): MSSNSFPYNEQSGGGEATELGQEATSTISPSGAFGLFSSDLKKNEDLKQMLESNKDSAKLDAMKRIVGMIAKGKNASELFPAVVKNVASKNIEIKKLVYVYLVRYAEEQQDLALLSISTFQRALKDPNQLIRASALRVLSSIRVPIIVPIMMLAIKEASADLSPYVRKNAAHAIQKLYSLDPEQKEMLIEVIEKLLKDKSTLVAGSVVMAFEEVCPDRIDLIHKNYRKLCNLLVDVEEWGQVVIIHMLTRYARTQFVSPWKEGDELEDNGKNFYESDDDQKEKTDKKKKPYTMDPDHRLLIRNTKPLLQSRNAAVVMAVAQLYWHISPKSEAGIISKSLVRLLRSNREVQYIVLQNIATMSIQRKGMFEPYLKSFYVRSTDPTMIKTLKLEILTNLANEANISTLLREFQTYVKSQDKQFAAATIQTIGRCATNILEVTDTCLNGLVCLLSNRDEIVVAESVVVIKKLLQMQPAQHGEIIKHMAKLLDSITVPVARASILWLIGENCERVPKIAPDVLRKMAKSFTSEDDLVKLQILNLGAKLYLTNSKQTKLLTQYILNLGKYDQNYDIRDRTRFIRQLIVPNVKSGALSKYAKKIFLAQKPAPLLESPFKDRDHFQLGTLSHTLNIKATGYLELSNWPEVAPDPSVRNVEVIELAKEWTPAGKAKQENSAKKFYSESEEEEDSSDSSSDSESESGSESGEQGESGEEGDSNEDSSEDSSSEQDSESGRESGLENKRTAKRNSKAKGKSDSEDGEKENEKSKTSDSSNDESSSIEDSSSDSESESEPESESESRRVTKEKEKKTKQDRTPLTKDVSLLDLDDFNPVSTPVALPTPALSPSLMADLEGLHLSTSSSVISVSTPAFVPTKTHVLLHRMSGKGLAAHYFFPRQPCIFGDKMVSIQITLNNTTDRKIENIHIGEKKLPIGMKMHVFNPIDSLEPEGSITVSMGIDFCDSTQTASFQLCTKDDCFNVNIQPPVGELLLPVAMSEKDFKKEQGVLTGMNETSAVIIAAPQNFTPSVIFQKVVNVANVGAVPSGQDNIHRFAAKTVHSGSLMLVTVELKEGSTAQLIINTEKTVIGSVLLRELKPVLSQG
Description: pyrophosphorylation of immunoprecipitated protein, phosphorimager. It counts as biochemical. To be noted: labelled compound; β-phosphate donor, covalent transfer to pSer of the protein, enzyme-independent; 6 mM MgCl2, pH 7.4, 37 °C, 15 min.

T1 sequence (P68400 whole entry): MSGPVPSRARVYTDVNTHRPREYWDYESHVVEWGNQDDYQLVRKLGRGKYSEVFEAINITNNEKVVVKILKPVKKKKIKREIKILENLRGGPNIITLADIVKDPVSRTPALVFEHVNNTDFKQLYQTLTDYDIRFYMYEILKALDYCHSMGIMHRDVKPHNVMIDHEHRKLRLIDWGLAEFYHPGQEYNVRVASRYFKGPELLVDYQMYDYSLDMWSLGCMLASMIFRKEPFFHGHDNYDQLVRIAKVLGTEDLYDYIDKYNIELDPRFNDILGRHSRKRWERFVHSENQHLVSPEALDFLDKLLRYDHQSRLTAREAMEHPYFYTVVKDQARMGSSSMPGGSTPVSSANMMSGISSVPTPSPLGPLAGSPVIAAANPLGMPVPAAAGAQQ
T1 sequence (P67870 2-215 partner): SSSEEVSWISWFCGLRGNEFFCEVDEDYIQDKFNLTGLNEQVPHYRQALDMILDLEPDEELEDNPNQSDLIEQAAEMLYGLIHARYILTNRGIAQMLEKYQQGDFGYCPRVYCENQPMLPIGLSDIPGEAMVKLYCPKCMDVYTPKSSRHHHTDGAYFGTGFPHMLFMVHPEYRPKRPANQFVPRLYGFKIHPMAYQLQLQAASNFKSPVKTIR

As to `O=C(O)/C=C/c1cc(Br)c(Br)c(Br)c1Br` [TBCA], the “phosphorylation lowered at 15 μM” value in assay [1] was “which was lowered when the CK2 inhibitor TBCA was added to the reaction”.
On to `O=P(O)(O)O[C@H]1[C@@H](OP(=O)(O)O)[C@H](OP(=O)(O)O)[C@@H](OP(=O)(O)OP(=O)(O)O)[C@H](OP(=O)(O)O)[C@H]1OP(=O)(O)O` [5-InsP7], for which the “pyrophosphorylation of immunoprecipitated protein, phosphorimager” value at AP3B1 (myc-tagged) was “AP3B1 over-expressed under these two conditions was immunoprecipitated and incubated with radiolabeled 5-InsP7”.

Values taken from PMC11461180, “Interaction with IP6K1 supports pyrophosphorylation of substrate proteins by the inositol pyrophosphate 5-InsP7” (Bioscience Reports, 2024).
